The values below come from US12428651B2, “Transcription factors to improve resistance to environmental stress in plants” (Board of Trustees of Michigan State University, priority 2016, dated 2025).

The subject of test [1] is phyB-9 mutant plants. As to the kind of experiment: Primary root length in the presence of 15 μM 5-MT, phyB-9 plants overexpressing MYC2 variants. Format: in vivo, Arabidopsis thaliana. The conditions noted are these: 14-day-old seedlings, overexpression in phyB-9, normalized to the same genotype without 5-MT. How it is done:
Primary root length in the presence of 15 μM 5-MT was evaluated for 14-day-old seedlings of non-transgenic (NT) phyB-9 mutant plants or phyB-9 mutant plants that overexpressed either wild-type (WT) MYC2 or a MYC2^D105N/E165K mutant allele that harbors two point mutations (D105N and E165K) that prevent JAZ binding. Primary root length was determined as the root length of a given genotype grown in the presence of 15 μM 5-MT normalized to the root length of the same genotype grown in the absence of 5-MT.

Test [2] concerns JAZ proteins. The conditions noted are these: literature (Goossens et al., 2015; Smolen et al., 2002); cited from earlier work.
The test system of test [3] is Arabidopsis. As to the kind of experiment: Resistance to 5-methyl tryptophan (5-MT) of transgenic Arabidopsis overexpressing MYC transcription factors. The class given is in vivo, Arabidopsis thaliana. The conditions noted are these: for 5-MT resistance: overexpression from the 35S promoter, phyB mutant background, 50 μM 5-methyl-tryptophan, 3 weeks, preliminary results. Here is the method: Functional analysis of these and other MYC^D transcription factors in planta was performed by overexpressing the transcription factors in Arabidopsis with subsequent testing of the resulting transgenic lines for increased resistance to 5-methyl tryptophan (5-MT), a toxic analog of the amino acid tryptophan.

Test [4] has as its target T1, JAZ10.4 (Arabidopsis thaliana, UniProt Q93ZM9).
T1 construct: expressed in transfected cells; host or cells: yeast (two-hybrid)
T1 sequence (Q93ZM9 1-167 isoform Q93ZM9-3): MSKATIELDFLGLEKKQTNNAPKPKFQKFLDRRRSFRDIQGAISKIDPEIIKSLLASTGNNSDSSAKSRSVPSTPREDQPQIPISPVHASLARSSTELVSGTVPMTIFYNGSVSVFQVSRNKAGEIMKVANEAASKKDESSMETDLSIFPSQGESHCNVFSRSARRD
As to the kind of experiment: Yeast two-hybrid analysis of JAZ10.4 (bait) interaction with wild-type MYC3 and MYC3 point mutants (prey). Conditions: JAZ10.4 bait (CMID, no Jas motif), MYC3 variant prey. The class given is binding. Here is the method: The structural information from the MYC3-CMID complex was used to generate site-directed mutants of MYC3 that have reduced interaction with the JAZ10.4 splice variant, which contains a CMID but not a Jas motif (Chung and Howe 2009). Several promising mutants were made.
(§1) The interactions of mutants MYC3^L152A and MYC3^E148A/M155A with JAZ10.4 and MED25 was evaluated using yeast two-hybrid analyses to visualize MED25 and JAZ10.4 (bait) interactions with wild-type MYC3 and MYC3 point mutants (prey).

In test [5] the target is T2, MED25 (Arabidopsis thaliana, UniProt Q7XYY2).
T2 construct: expressed in transfected cells; host or cells: yeast (two-hybrid)
T2 sequence (Q7XYY2 1-836): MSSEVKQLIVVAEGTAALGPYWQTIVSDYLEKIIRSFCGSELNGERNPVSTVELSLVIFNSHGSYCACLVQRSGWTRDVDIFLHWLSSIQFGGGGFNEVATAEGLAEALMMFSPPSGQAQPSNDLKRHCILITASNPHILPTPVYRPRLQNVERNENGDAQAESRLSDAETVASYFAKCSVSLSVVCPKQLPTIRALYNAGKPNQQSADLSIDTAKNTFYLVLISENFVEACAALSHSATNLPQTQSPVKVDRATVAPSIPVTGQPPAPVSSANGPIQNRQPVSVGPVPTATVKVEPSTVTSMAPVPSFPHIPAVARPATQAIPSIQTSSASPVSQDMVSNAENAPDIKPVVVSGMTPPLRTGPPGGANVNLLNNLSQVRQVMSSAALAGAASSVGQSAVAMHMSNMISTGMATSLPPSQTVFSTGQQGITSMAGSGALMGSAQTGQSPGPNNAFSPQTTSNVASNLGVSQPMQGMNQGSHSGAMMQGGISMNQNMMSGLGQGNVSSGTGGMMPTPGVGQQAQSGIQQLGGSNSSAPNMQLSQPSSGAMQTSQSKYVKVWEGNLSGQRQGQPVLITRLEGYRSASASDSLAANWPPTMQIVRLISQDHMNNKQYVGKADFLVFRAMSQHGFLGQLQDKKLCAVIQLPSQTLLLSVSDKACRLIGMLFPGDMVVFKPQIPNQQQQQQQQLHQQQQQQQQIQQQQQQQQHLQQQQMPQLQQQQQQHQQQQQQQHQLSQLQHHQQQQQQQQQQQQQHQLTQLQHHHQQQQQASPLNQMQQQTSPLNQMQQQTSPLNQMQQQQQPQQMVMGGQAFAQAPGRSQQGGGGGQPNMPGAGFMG
As to the kind of experiment: Yeast two-hybrid analysis of MED25 (bait) interaction with wild-type MYC3 and MYC3 point mutants (prey). The class given is binding. Conditions: MYC3 variant prey. How it is done:
as §1

On to “MYC2^D105N/E165K: MYC2 mutant allele that harbors two point mutations (D105N and E165K) that prevent JAZ binding”, for which the primary root length result in test [1] is listed as “best primary root growth”.

As to “MYC3^D94N: dominant MYC3 variant (atr2D allele), Asp-to-Asn missense mutation in the JAZ-interacting domain”, the “interaction with most JAZ proteins” value in test [2] is recorded as “fail to interact”. Moreover, in test [3], the 5-MT resistance entry is listed as “confers 5-MT resistance”. As to MYC3^E148A/M155A, the JAZ10.4 interaction entry in test [4] is listed as “strongly reduced”. For the same substance, the MED25 interaction result in test [5] is recorded as “still interacted”. The matching figures for MYC3^L152A: “strongly reduced” and “still interacted”.

Regarding “tomato MYC2 D132N: tomato (Solanum lycopersicum) MYC2 protein with SEQ ID NO:19 modified to have a D132N mutation”, the “resistance to 5-MT” value in test [3] (tomato MYC2 variant overexpressed in Arabidopsis, data not shown) is given as “confers resistance”.

For “wild type MYC2: Arabidopsis thaliana MYC2 sequence, SEQ ID NO:1 [reference compound]”, in test [1], the primary root length result was “improves primary root length”. Consider “wild-type MYC3: Arabidopsis thaliana MYC3 sequence, SEQ ID NO:3”, for which, in test [3], the 5-MT resistance result was “not”.
